# “Also recorded” adds a separate entry of the source. Read-outs that look alike come from different tables or passages of the source.
# Assays:
# SK-N-MC and AsPC-1 cells = experiment: MTT cellular proliferation assay, values stated over both tumor cell-types; format: cell-based, human; details: for Mean therapeutic index: average of the therapeutic indices for SK-N-MC and AsPC-1 vs MRC-5, 72 h/37 °C; for IC50: SK-N-MC and AsPC-1, after 72 h, read-out: IC50 (range over both cell-types)
# Procedure: The anti-proliferative activity of Dp4e4mT relative to its complexes with Fe(III), Co(III), Ni(II), Cu(II), Zn(II), Ga(III), and Pd(II) was examined over incubation periods of 24-, 48-, and 72 h/37 °C (Table 2). These studies were performed using human SK-N-MC neuroepithelioma and AsPC-1 pancreatic adenocarcinoma cells that we have previously examined to assay other ligands.[15,28,43]
# (§1) To examine the selectivity of the Dp4e4mT complexes against neoplastic versus normal mortal cells, their anti-proliferative efficacy was compared to mortal MRC-5 fibroblasts after a 72 h/37 °C incubation (Table 3). […] To further examine selectivity, an in vitro therapeutic index was calculated as per our previous investigations.[28,57,59,66,67] This parameter is derived from the ratio of the IC50 of MRC-5 cells/IC50 of SK-N-MC or AsPC-1 cells; with high ratios indicating greater selective anti-proliferative activity against neoplastic cells (Table 3). The mean therapeutic index is the average of the therapeutic indices calculated for both tumor cell-types. […] The mean therapeutic index of Dp4e4mT exceeded that obtained for clinically trialed DpC (157), as well as that of Dp44mT (112) and DFO (6). […]
# (§2) All cell lines were procured from the American Type Culture Collection (ATCC; Manassas, VA). The SK-N-MC neuroepithelioma cell line and the mortal MRC-5 fibroblasts were cultured in minimum essential medium (Sigma-Aldrich), while the AsPC-1 cell line was cultured in Roswell Park Memorial Institute 1640 medium (Thermo Fisher Scientific, MA, USA). Both media were supplemented with 10% fetal calf serum, non-essential amino acids (1 mM), sodium pyruvate (1 mM), L-glutamine (2 mM), penicillin (100 U/mL), streptomycin (100 U/mL), and Fungizone (0.5 µg/mL). Cells were maintained at 37 °C in an incubator under a humidified atmosphere with 5% CO 2, following established protocols. 11 Cellular Proliferation Assay
# (§3) Cellular proliferation was evaluated through the established 3-(4,5-dimethylthiazol-2-yl)-2,5-diphenyltetrazolium bromide (MTT) proliferation assay, validated by viable cell counts.12 […]
# (§4) Ligands and complexes were dissolved in DMSO to make a stock solution of 10 mM, subsequently diluted in culture media. For cell culture experiments, the DMSO's maximum concentration remained below 0.5% (v/v), with no discernible impact on proliferation.12 MTT […]
# (§5) Trypan blue staining.12 Analysis of the data was executed employing MARS Data Analysis Software (BMG LabTech; version 3.30). The concentration of agents necessary to inhibit cellular proliferation by 50% (IC 50) was then calculated. […]
# MRC-5 fibroblasts = experiment: MTT cellular proliferation assay, mortal MRC-5 fibroblasts; format: cell-based; details: 37 °C, mean ± SD (3 experiments)
# Procedure: as §1, §2, §3, §4, §5
# oxy-Mb = molecular target: T1, oxy-Mb (Homo sapiens, UniProt P02144); experiment: Oxidation of purified oxy-Mb to met-Mb (UV-vis); format: biochemical; details: 10 μM agent, oxy-Mb 40 μM; for oxy-Mb oxidation (in words): 1–3 h/20 °C; for oxy-Mb oxidation (met-Mb generation): 3 h incubation, 20 °C
# T1 sequence (P02144 1-154): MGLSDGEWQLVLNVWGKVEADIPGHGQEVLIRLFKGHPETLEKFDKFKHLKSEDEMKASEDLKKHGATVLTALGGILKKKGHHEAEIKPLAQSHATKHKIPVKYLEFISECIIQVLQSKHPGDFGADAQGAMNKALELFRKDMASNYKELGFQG
# Description: As such, it was important to examine the effect of the Dp4e4mT complexes on oxy-Hb and oxy-Mb oxidation (Fig. 6 and 7). Comparisons were made to three controls, namely DFO, Dp44mT, and DpC, as well as their Fe(III) complexes. […] In contrast, the Fe(III) complexes of Dp44mT and DpC were positive controls, as they induce oxidation of oxy-Mb.[28,39,42]
# Fig. 6 (A and B) Investigation of the effects of Dp4e4mT and its Fe(III), Co(III), Ni(II), Cu(II), Zn(II), Ga(III), and Pd(II) complexes versus the positive controls DFO, Dp44mT, DpC and their Fe(III) complexes (10 μM) on met-Mb generation (% zero time) after an incubation of 1–3 h/20 °C with purified oxy-Mb (40 μM). Results are mean ± SD (3 experiments).
# Spectroscopic Examination of Met-Mb and Met-Hb Formation from Oxy-Mb and Oxy- […]
# Oxy-Mb and oxy-Hb solutions were prepared following established protocols.8, 17 In brief, solutions of reduced Mb and Hb in PBS (pH 7.2) were prepared by adding 1.2 mL of Na2S2O4 (12 mM) to 38 mL of met-Mb and met-Hb solution (40 μM). 17 Subsequently, oxy-Mb and oxy-Hb were generated by gently passing 150 mL of oxygen (from an air-filled syringe) through the solution containing reduced Mb and Hb, effectively eliminating any residual Na2S2O4. Following this, the oxy-Mb and oxy-Hb solutions were passed through a PD-10 column prepacked with 8.3 mL of Sephadex G-25 and equilibrated with PBS (pH 7.2). 17 In experiments examining the activity of the agents, all complexes were dissolved in 1,2-propanediol, then diluted to 10 µM in PBS (pH 7.2). The experiments were conducted over incubations of 0 to 3 h with the agents. UV-Vis spectra covering the range of 300 to 700 nm were recorded at a temperature of 20°C using a Shimadzu UV−Vis spectrophotometer (UV-1800; Shimadzu, Kyoto, Japan). Concentrations of met-Mb and met-Hb, as well as reduced-Mb and reduced-Hb, were determined at 409 nm and 435 nm, respectively. Concentrations of oxy-Mb and oxy-Hb were determined at 544 nm and 582 nm, respectively. 17
# [1] = listed as Dp4e4mT Co(III) complex
# [2] = Homo sapiens, MRC5, MRC-5, 72 h
# [3] = listed as Dp4e4mT Pd(II) complex
IC50 (SK-N-MC and AsPC-1 cells) [µM],oxy-Mb oxidation (met-Mb generation) (oxy-Mb),Compound,Mean therapeutic index (SK-N-MC and AsPC-1 cells),"IC50 (MRC-5 fibroblasts; MRC-5, 72 h) [µM]",oxy-Mb oxidation (in words) (oxy-Mb),IC50 (MRC-5 fibroblasts; [2]) [µM],also measured
,,CCN(C)C([S-])=NN=C(c1ccccn1)c1ccccn1.CCN(C)C([S-])=NN=C(c1ccccn1)c1ccccn1.[Ga+3] [[Ga(Dp4e4mT)2]^+],173,0.774 ± 0.014,significantly increased oxy-Mb and oxy-Hb oxidation,,oxy-Mb oxidation (in words) (oxy-Mb; listed as Dp4e4mT Ga(III) complex): induced marked oxy-Mb oxidation
0.818 to 1.57,,CCN(C)C([S-])=NN=C(c1ccccn1)c1ccccn1.CCN(C)C([S-])=NN=C(c1ccccn1)c1ccccn1.[Co+3] [[Co(Dp4e4mT)2]^+],3,3.901 ± 0.007,minimal impact,,IC50 (SK-N-MC and AsPC-1 cells; [1]): 0.262 to 1.57 µM; Mean therapeutic index (SK-N-MC and AsPC-1 cells; [1]): 3–9; oxy-Mb oxidation (in words) (oxy-Mb; [1]): no appreciable oxidation of oxy-Mb
,,CCN(C)C([S-])=NN=C(c1ccccn1)c1ccccn1.CCN(C)C([S-])=NN=C(c1ccccn1)c1ccccn1.[Zn+2] [[Zn(Dp4e4mT)2]],156,,significantly increased oxy-Mb and oxy-Hb oxidation,,oxy-Mb oxidation (in words) (oxy-Mb; listed as Dp4e4mT Zn(II) complex): induced marked oxy-Mb oxidation
,,"CN(C(=S)NN=C(c1ccccn1)c1ccccn1)C1CCCCC1 [DpC, di-2-pyridylketone 4-cyclohexyl-4-methyl-3-thiosemicarbazone, reference compound]",157,,,2.987 ± 0.008,IC50 (SK-N-MC and AsPC-1 cells; Homo sapiens): 0.018 to 0.028 µM
,129 % of the control,"CN(C)C(=S)NN=C(c1ccccn1)c1ccccn1 [Dp44mT, di-2-pyridylketone 4,4-dimethyl-3-thiosemicarbazone, reference compound]",112,,,1.073 ± 0.007,
,140 % of the control,"CCN(C)C(=S)NN=C(c1ccccn1)c1ccccn1 [Dp4e4mT, di-2-pyridylketone-4-ethyl-4-methyl-3-thiosemicarbazone]",210,,,1.81 ± 0.518,
,,CCN(C)C([S-])=NN=C(c1ccccn1)c1ccccn1.[Cl-].[Cu+2] [[Cu(Dp4e4mT)Cl]],130,0.391 ± 0.072,did not significantly lead to oxidation of oxy-Mb,,
0.262 to 1.57,,CCN(C)C([S-])=NN=C(c1ccccn1)c1ccccn1.[Cl-].[Pd+2] [[Pd(Dp4e4mT)Cl]],3,1.04 ± 0.011,minimal impact,,Mean therapeutic index (SK-N-MC and AsPC-1 cells; [3]): 3–9; oxy-Mb oxidation (in words) (oxy-Mb; [3]): no appreciable oxidation of oxy-Mb
0.018 to 0.076,,CCN(C)C([S-])=NN=C(c1ccccn1)c1ccccn1.CCN(C)C([S-])=NN=C(c1ccccn1)c1ccccn1.[Ni+2] [[Ni(Dp4e4mT)2]],156,> 5,low activity; also recorded: minimal impact,,
,213 % of the control,CCN(C)C([S-])=NN=C(c1ccccn1)c1ccccn1.CCN(C)C([S-])=NN=C(c1ccccn1)c1ccccn1.[Fe+3] [[Fe(Dp4e4mT)2]^+],9,1.98 ± 0.006,,,Mean therapeutic index (SK-N-MC and AsPC-1 cells; listed as Dp4e4mT Fe(III) complex): 3–9

# — PMC10793205, “Differential transmetallation of complexes of the anti-cancer thiosemicarbazone, Dp4e4mT: effects on anti-proliferative efficacy, redox activity, oxy-myoglobin and oxy-hemoglobin oxidation” (Chemical Science, 2023)
